Test results from patent EP0450100A1, “PHYSIOLOGICALLY ACTIVE PEPTIDE” (MEIJI SEIKA KAISHA LTD., priority 1989, dated 1991).
No end group written: not given here.

Tested on: canine femoral artery
Experiment: Influence of the peptides on the blood flow passing through canine femoral artery (VIP bioassay method of Said and Mutt)
Assay type: in vivo
Conditions: anesthetized beagles; 200 p mol/kg injected into the femoral artery; 0.5 to 4 minutes after injection; conclusion from Table 1 and Table 2
Experimental: The above-mentioned influence was estimated according to the VIP bioassay method proposed by Said and Mutt [see "Nature" 225, 863-864 (1970)]. After three mature beagles having the body weight of 10 kg were fasted for 18 hours, they were anesthetized with thiamylal (10 mg/kg) and Nembutal ([…]). During the experiment, physiological saline was continuously injected (2 mℓ/min.) into a vein of each beagle and the body temperature of the beagle was maintained at 37-38°C by an electric heater. The femoral artery was surgically exposed, and a polyethylene tube filled with heparin-added physiological saline was inserted in and fixed to a muscle branch of the femoral artery so that the polyethylene tube could be used as an injection route for each peptide under test. A probe of an electro-magnetic blood flowmeter was attached to the femoral artery on a peripheral side of the muscle branch so that the average flow rate of blood through the artery was recorded as time-dependent variations on a polygraphy.
A solution of 10 µg of each tested polypeptide dissolved in 25 µℓ of 0.01 N HCl was diluted with physiological saline to prepare an injectable solution of the peptide. The injectable solution was injected into the artery by means of a peristaltic pump. Each peptide was injected at the dose of 200 p mol/kg. Tested peptides included the following compounds: Compound 1: Hd(1-33)-NH2 [the invention peptide of formula (Ic)] Compound 2: Hd(1-31)-NH₂ [the invention peptide of formula (Ia)] Compound 3: VIP(1-28)-Hd(29-35)-NH₂ [the invention peptide of formula (III)] Compound 4: VIP(1-11)-Hd(12-31)-NH₂ [the invention peptide of formula (II)]
Upon elapsed times of 0.5 minute, 1 minute, 2 minutes, 3 minutes and 4 minutes after the injection of each peptide under test,the blood flow rate was measured. Increases in the femoral arterial blood flow rate (mℓ/min.) as comapred with the basal level of blood flow rate were calculated. It may be added that the test results of Table 1 and those of Table 2 were obtained through tests which were conducted by the same method but at different times.

| Substance | activity of increasing the blood flow rate (femoral arterial blood flow rate) compared with helodermin | sustaining of the blood-flow-rate-increasing activity compared with helodermin |
| --- | --- | --- |
| HSDAIFTQQYSKLLAKLALQKYLASILGSRT-NH2 [Compound 2, Hd(1-31)-NH₂] | enhanced activity of increasing the blood flow rate over helodermin | effects of sustaining the blood-flow-rate-increasing activity in comparison with helodermin |
| HSDAIFTQQYSKLLAKLALQKYLASILGSRTSP-NH2 [Compound 1, Hd(1-33)-NH₂] | enhanced activity of increasing the blood flow rate over helodermin | effects of sustaining the blood-flow-rate-increasing activity in comparison with helodermin |
